Values quoted from earlier work as cited in patent publication US5717095A, “Nucleotide analogs” (Gilead Sciences, Inc., priority 1996, dated 1998).

System: intraperitoneal P388 leukemia
Settings: murine; cited from earlier work

## Nc1ncnc2c1ncn2CC(CO)OCP(=O)(O)O (stereo not shown) [HPMPA]
  antitumor activity: active
